Results reported in US10947389B2, “Composition, film, near infrared cut filter, laminate, pattern forming method, solid image pickup element, image display device, infrared sensor, and color filter” (FUJIFILM Corporation, priority 2016, dated 2021).

Columns and labels:
[1] = Evaluation of absorption maximum and absorbance ratio (500 nm/λmax) in solution; assay type: physicochemical; conditions: for λmax (nm) of Second Near Infrared Absorbing Compound: as listed in Table 58; for Absorbance Ratio (500 nm/λmax) / Absorption Maximum (nm): solvent chloroform
Excerpt: In this specification, “having an absorption maximum in a wavelength range of 650 to 1000 nm” denotes having a maximum absorbance in a wavelength range of 650 to 1000 nm in an absorption spectrum of the near infrared absorbing compound in a solution. Examples of a measurement solvent used for the measurement of the absorption spectra of the near infrared absorbing compound in the solution include chloroform, methanol, dimethyl sulfoxide, ethyl acetate, and tetrahydrofuran. In the case of a compound which is soluble in chloroform, chloroform is used as the measurement solvent. In the case of a compound which is not soluble in chloroform, methanol is used. In addition, In the case of a compound which is not soluble in chloroform and methanol, dimethyl sulfoxide is used.
Each of the compounds was dissolved in a measurement solvent shown in the following tables (concentration: 2.5×10^−6 mol/L) to measure an absorption spectrum (optical path length: 10 mm).
In addition, an absorbance ratio (500 nm/λmax) as a value obtained by dividing an absorbance at a wavelength of 500 nm by an absorbance at an absorption maximum was evaluated based on the following criteria.
A: the absorbance ratio (500 nm/λmax) was 0.04 or lower
B: the absorbance ratio (500 nm/λmax) was higher 0.04 and 0.08 or lower
C: the absorbance ratio (500 nm/λmax) was higher than 0.08

[2] = Evaluation of solubility in water at 23° C.; assay type: physicochemical; conditions: stirred for 1 hour
Procedure: Each of the compounds was added to water at 23° C. under the atmospheric pressure, the components were stirred for 1 hour, and the solubility of the compound in water was obtained. The solubility of the compound was evaluated based on the following criteria.
A: the solubility in water at 23° C. was 0.1 mass % or lower
B: the solubility in water at 23° C. was higher than 0.1 mass % and 1 mass % or lower
C: the solubility in water at 23° C. was higher than 1 mass %

Row | SMILES | λmax (nm) of Second Near Infrared Absorbing Compound [1] [nm] | Absorbance Ratio (500 nm/λmax) [1] | Absorption Maximum (nm) [1] [nm] | Solubility [2]
1 | Cc1ccc2oc(/C(C#N)=c3/c4c(-c5cccc(OCC(CCC(C)CC(C)(C)C)C(C)CC(C)(C)C)c5)n(B5Oc6cc7ccccc7cc6O5)/c(=C(/C#N)c5nc6cc(C)ccc6o5)c4c(-c4cccc(OCC(CCC(C)CC(C)(C)C)C(C)CC(C)(C)C)c4)n3B3Oc4cc5ccccc5cc4O3)nc2c1 (stereo not drawn) [II-275] | 685 | A (the absorbance ratio (500 nm/λmax) was 0.04 or lower) | 685 | A (the solubility in water at 23 °C was 0.1 mass % or lower)
2 | COc1ccc2sc(C(C#N)=c3c4c(-c5ccc(OCC(CCCCCCCC(C)C)CCCCCC(C)C)cc5)n(B(c5ccccc5)c5ccccc5)c(=C(C#N)c5nc6cc(OC)ccc6s5)c4c(-c4ccc(OCC(CCCCCCCC(C)C)CCCCCC(C)C)cc4)n3B(c3ccccc3)c3ccccc3)nc2c1 (stereo not drawn) [II-673] |  | A (the absorbance ratio (500 nm/λmax) was 0.04 or lower) | 794 | A (the solubility in water at 23 °C was 0.1 mass % or lower)
3 | CC(C)CCCCCCCC(CCCCCC(C)C)COc1cccc(-c2c3c(=C(C#N)c4nc5ccccc5s4)n(B(c4ccccc4)c4ccccc4)c(-c4cccc(OCC(CCCCCCCC(C)C)CCCCCC(C)C)c4)c3c(=C(C#N)c3nc4ccccc4s3)n2B(c2ccccc2)c2ccccc2)c1 (stereo not drawn) [II-525] |  | A (the absorbance ratio (500 nm/λmax) was 0.04 or lower) | 783 | A (the solubility in water at 23 °C was 0.1 mass % or lower)
4 | CC(C)CCCCCCCC(CCCCCC(C)C)COc1ccc(-c2c3c(=C(C#N)c4nc5ccccc5s4)n(B(c4ccccc4)c4ccccc4)c(-c4ccc(OCC(CCCCCCCC(C)C)CCCCCC(C)C)cc4)c3c(=C(C#N)c3nc4ccccc4s3)n2B(c2ccccc2)c2ccccc2)cc1 (stereo not drawn) [II-507] |  | A (the absorbance ratio (500 nm/λmax) was 0.04 or lower) | 780 | A (the solubility in water at 23 °C was 0.1 mass % or lower)
5 | CC(CCC(COc1cccc(-c2c3/c(=C(\C#N)c4ccc5ccccc5n4)n(B(c4ccccc4)c4ccccc4)c(-c4cccc(OCC(CCC(C)CC(C)(C)C)C(C)CC(C)(C)C)c4)c3/c(=C(\C#N)c3ccc4ccccc4n3)n2B(c2ccccc2)c2ccccc2)c1)C(C)CC(C)(C)C)CC(C)(C)C (stereo not drawn) [III-358] |  | A (the absorbance ratio (500 nm/λmax) was 0.04 or lower) | 814 | A (the solubility in water at 23 °C was 0.1 mass % or lower)
6 | CC(C)CCCCCCCC(CCCCCC(C)C)COc1ccc(-c2c3c(=C(C#N)c4nc5ccccc5n4C)n(B(c4ccccc4)c4ccccc4)c(-c4ccc(OCC(CCCCCCCC(C)C)CCCCCC(C)C)cc4)c3c(=C(C#N)c3nc4ccccc4n3C)n2B(c2ccccc2)c2ccccc2)cc1 (stereo not drawn) [II-697] |  | A (the absorbance ratio (500 nm/λmax) was 0.04 or lower) | 743 | A (the solubility in water at 23 °C was 0.1 mass % or lower)
7 | CC(CCC(COc1cccc(-c2c3/c(=C(\C#N)c4cnc5ccccc5n4)n(B(c4ccccc4)c4ccccc4)c(-c4cccc(OCC(CCC(C)CC(C)(C)C)C(C)CC(C)(C)C)c4)c3/c(=C(\C#N)c3cnc4ccccc4n3)n2B(c2ccccc2)c2ccccc2)c1)C(C)CC(C)(C)C)CC(C)(C)C (stereo not drawn) [III-28] |  | A (the absorbance ratio (500 nm/λmax) was 0.04 or lower) | 863 | A (the solubility in water at 23 °C was 0.1 mass % or lower)
8 | CC(C)CCCCCCCC(CCCCCC(C)C)COc1ccc(-c2c3c(=C(C#N)c4nc5cc(Cl)ccc5o4)n(B(c4ccccc4)c4ccccc4)c(-c4ccc(OCC(CCCCCCCC(C)C)CCCCCC(C)C)cc4)c3c(=C(C#N)c3nc4cc(Cl)ccc4o3)n2B(c2ccccc2)c2ccccc2)cc1 (stereo not drawn) [II-325] |  | A (the absorbance ratio (500 nm/λmax) was 0.04 or lower) | 738 | A (the solubility in water at 23 °C was 0.1 mass % or lower)
9 | Cc1cc2ncc(/C(C#N)=c3/c4c(-c5cccc(OCC(CCC(C)CC(C)(C)C)C(C)CC(C)(C)C)c5)n(B(c5ccccc5)c5ccccc5)/c(=C(/C#N)c5cnc6cc(C)c(C)cc6n5)c4c(-c4cccc(OCC(CCC(C)CC(C)(C)C)C(C)CC(C)(C)C)c4)n3B(c3ccccc3)c3ccccc3)nc2cc1C (stereo not drawn) [III-328] |  | A (the absorbance ratio (500 nm/λmax) was 0.04 or lower) | 872 | A (the solubility in water at 23 °C was 0.1 mass % or lower)
10 | N#CC(c1nc2ccccc2s1)=c1c2c(-c3ccc(O)cc3)n(B(c3ccccc3)c3ccccc3)c(=C(C#N)c3nc4ccccc4s3)c2c(-c2ccc(O)cc2)n1B(c1ccccc1)c1ccccc1 [II-524] |  | A (the absorbance ratio (500 nm/λmax) was 0.04 or lower) | 779 | A (the solubility in water at 23 °C was 0.1 mass % or lower)
11 | Cc1ccc2oc(C(C#N)=c3c4c(-c5cccc(OCC(CCCCCCCC(C)C)CCCCCC(C)C)c5)n(B(c5ccccc5)c5ccccc5)c(=C(C#N)c5nc6cc(C)ccc6o5)c4c(-c4cccc(OCC(CCCCCCCC(C)C)CCCCCC(C)C)c4)n3B(c3ccccc3)c3ccccc3)nc2c1 (stereo not drawn) [II-185] |  | A (the absorbance ratio (500 nm/λmax) was 0.04 or lower) | 748 | A (the solubility in water at 23 °C was 0.1 mass % or lower)
12 | CC(CCC(COc1cccc(-c2[nH]/c(=C(/C#N)c3cnc4ccccc4n3)c3c(-c4cccc(OCC(CCC(C)CC(C)(C)C)C(C)CC(C)(C)C)c4)[nH]/c(=C(/C#N)c4cnc5ccccc5n4)c23)c1)C(C)CC(C)(C)C)CC(C)(C)C (stereo not drawn) [PP-1] |  | B (the absorbance ratio (500 nm/λmax) was higher 0.04 and 0.08 or lower) | 739 | A (the solubility in water at 23 °C was 0.1 mass % or lower)
13 | CC(C)CCCCCCCC(CCCCCC(C)C)COc1ccc(-c2c3c(=C(C#N)c4nc5ccccc5o4)n(B(c4ccccc4)c4ccccc4)c(-c4ccc(OCC(CCCCCCCC(C)C)CCCCCC(C)C)cc4)c3c(=C(C#N)c3nc4ccccc4o3)n2B(c2ccccc2)c2ccccc2)cc1 (stereo not drawn) [II-9] |  | A (the absorbance ratio (500 nm/λmax) was 0.04 or lower) | 740 | A (the solubility in water at 23 °C was 0.1 mass % or lower)
14 | Cc1ccc2oc(C(C#N)=c3c4c(-c5ccc(OCC(CCCCCCCC(C)C)CCCCCC(C)C)cc5)n(B(c5ccccc5)c5ccccc5)c(=C(C#N)c5nc6cc(C)ccc6o5)c4c(-c4ccc(OCC(CCCCCCCC(C)C)CCCCCC(C)C)cc4)n3B(c3ccccc3)c3ccccc3)nc2c1 (stereo not drawn) [II-167] |  | A (the absorbance ratio (500 nm/λmax) was 0.04 or lower) | 745 | A (the solubility in water at 23 °C was 0.1 mass % or lower)
15 | CC(C)CCCCCCCC(CCCCCC(C)C)COc1ccc(-c2c3c(=C(C#N)c4cnc5ccccc5n4)n(B(c4ccccc4)c4ccccc4)c(-c4ccc(OCC(CCCCCCCC(C)C)CCCCCC(C)C)cc4)c3c(=C(C#N)c3cnc4ccccc4n3)n2B(c2ccccc2)c2ccccc2)cc1 (stereo not drawn) [III-9] |  | A (the absorbance ratio (500 nm/λmax) was 0.04 or lower) | 863 | A (the solubility in water at 23 °C was 0.1 mass % or lower)
16 | CC(C)CCCCCCCC(CCCCCC(C)C)COc1cccc(-c2c3c(=C(C#N)c4nc5c(ccc6ccccc65)o4)n(B(c4ccccc4)c4ccccc4)c(-c4cccc(OCC(CCCCCCCC(C)C)CCCCCC(C)C)c4)c3c(=C(C#N)c3nc4c(ccc5ccccc54)o3)n2B(c2ccccc2)c2ccccc2)c1 (stereo not drawn) [II-715] |  | A (the absorbance ratio (500 nm/λmax) was 0.04 or lower) | 769 | A (the solubility in water at 23 °C was 0.1 mass % or lower)
17 | CCCCN1/C(=C/C2=C([O-])C(=C/c3sc4c5ccccc5ccc4[n+]3CCCC)/C2=O)Sc2c1ccc1ccccc21 [Compound Q-54] |  | A (the absorbance ratio (500 nm/λmax) was 0.04 or lower) | 698 | A (the solubility in water at 23 °C was 0.1 mass % or lower)
18 | CC(C)CCCCCCCC(CCCCCC(C)C)COc1cccc(-c2c3c(=C(C#N)c4nc5ccccc5o4)n(B(c4ccccc4)c4ccccc4)c(-c4cccc(OCC(CCCCCCCC(C)C)CCCCCC(C)C)c4)c3c(=C(C#N)c3nc4ccccc4o3)n2B(c2ccccc2)c2ccccc2)c1 (stereo not drawn) [II-27] | 743 | A (the absorbance ratio (500 nm/λmax) was 0.04 or lower) | 743 | A (the solubility in water at 23 °C was 0.1 mass % or lower)
19 | Cc1ccc2oc(C(C#N)=c3c4c(-c5cccc(OCC(CCCCCCCC(C)C)CCCCCC(C)C)c5)n(B5Oc6cc7ccccc7cc6O5)c(=C(C#N)c5nc6cc(C)ccc6o5)c4c(-c4cccc(OCC(CCCCCCCC(C)C)CCCCCC(C)C)c4)n3B3Oc4cc5ccccc5cc4O3)nc2c1 (stereo not drawn) [II-274] | 685 | A (the absorbance ratio (500 nm/λmax) was 0.04 or lower) | 685 | A (the solubility in water at 23 °C was 0.1 mass % or lower)
